Test results from article PMC10747602, “Dose Response, Dosimetric, and Metabolic Evaluations of Replacement PFAS Perfluoro-(2,5,8-trimethyl-3,6,9-trioxadodecanoic) Acid (HFPO-TeA)” (Toxics, 2023).
Where “and” joins values, the source holds several entries; their conditions need not be identical. Equal entries are not always repeated. Where two headings read alike, the source gives them in different places.

Legend:
[1] = In vitro-in vivo extrapolation (IVIVE) to estimate Css, human; details: for Css / Css (steady-state concentration, plasma): IVIVE, BW 70 kg; for Css: ID 0.042 mg/kg/hr; for Css (steady-state concentration, plasma): intake dosage 1 mg/kg/day; for fraction unbound: blood, fub=fup/(1-hemocrit ref value), hematocrit 0.45; for Clint: scaled (HPGL 110, Vl 1596 g)
Experimental: (§1) Fraction unbound (fu) in plasma (fup) and percent stability calculations are detailed in Supplementary Text S10. Hepatic clearance, the fu in blood (fub) (fu in plasma adjusted for blood:plasma partitioning), and renal clearance were used to derive the steady-state concentration (Css) of each compound that will be used for in vitro–in vivo extrapolation (IVIVE). Renal clearance was calculated using the glomerular filtration rate (a species-dependent constant) and the fub. The Css calculation is detailed in Supplementary Text S11.
(§2) Linear regression analysis in conjunction […]
(§3) cells in the Clint equation. […]
(§4) concentration by the T300 min concentration (Equation E). Chemical stability in plasma was assessed […]
(§5) (F) Percent Stability = T300minutesT60minutes∗100 […]
(§6) blood (fub) of the parent compound. The Clhepatic calculation is shown in the second part of the denominator of Equation G; it is the product of the species dependent liver blood flow constant, the fub of the parent compound, and the experimentally derived intrins ic clearance (s hown in Equation D) divided by the sum these three values. All values used in Equation G are for first order conditions of metabolism in the liver. All calculations, scalars, and species dependent values used to conduct the Css calculation to facilitate in vitro-in vivo extrapolation (IVIVE) are provided Table S19 within the Excel worksheet, the tab […]
(§7) Based on the principle of reverse dosimetry, the Css values derived from IVIVE will be u sed as conversion factors to generate AEDs according to Equation H. In this equation, the AED is linearly related to the in vitro concentration and inversely related to the Css. It is only valid for first-order metabolism that is expected at ambient exposure levels.
(§8) (H) AED ൮ mgkg൲ = in vitro concentration (µM )

[2] = In vitro-in vivo extrapolation (IVIVE) to estimate Css, rat; details: for Css / Css (steady-state concentration, plasma): IVIVE, BW 0.25 kg; for Css: ID 0.042 mg/kg/hr; for Css (steady-state concentration, plasma): intake dosage 1 mg/kg/day; for fraction unbound at 300 min: Sprague Dawley, blood, fub=fup/(1-hemocrit ref value), hematocrit 0.439; for Clint: scaled (HPGL 117, Vl 9.5 g)
Experimental: as §1, §2, §3, §4, §5, §6, §7, §8

[3] = Ultracentrifugation plasma protein binding assay, rat plasma; format: in vitro ADME; details: both sexes, Sprague Dawley, rat
Experimental: (§9) Information on the chemicals and materials used in the plasma protein binding work can be found in Supplementary Text S10 and Table S3. Human and rodent plasma were evaluated for plasma protein binding using ultracentrifugation, as previously described. Working solutions of 3 mM of HFPO-DA, HFPO-TA, and HFPO-TeA were prepared separately in ethanol, with each working solution containing 3 mM of testosterone (Sigma-Aldrich; ≥98% pure) as a reference compound for assay performance. An aliquot of each stock solution (13.3 µL) was added to separate 15 mL tubes with 3.987 mL of plasma for a final assay concentration of 10 µM. The plasma solutions were incubated at 37 °C and 125 rpm for 60 min. One-hour stability samples (T60 min) were drawn in triplicate and diluted in four volumes of plasma ultrafiltrate. Aliquots (1 mL) from each plasma solution were drawn in triplicate and transferred to polycarbonate tubing. These samples underwent ultracentrifugation (Beckman OptimaMax; Beckman Coulter Inc., Brea, CA, USA) at 850,000× g for 4 h at 37 °C.
(§10) The remaining plasma solutions were returned for incubation at 37 °C and 125 rpm for an additional 4 h. Five-hour stability samples (T300 min) were then drawn in triplicate and diluted in four volumes of plasma ultrafiltrate. After ultracentrifugation, the aqueous fraction (AF) was collected by transferring the supernatant to a new tube and diluting in an equal volume of plasma for matrix matching. All samples were combined with 3 volumes of ice-cold ACN containing 16 ng/mL of ^13C3-HFPO-DA and 16 ng/mL of ^13C-Testosterone (Cambridge Isotope Laboratories; 98% pure). Samples were vigorously mixed, stored for 10 min at −20 °C, and then centrifuged at 12,000× g for 10 min at 4 °C. Supernatants were collected then stored at −70 °C prior to analysis.
as §1
(§11) The gradient is available in Table S11. […]
(§12) Chemical stability in plasma was assessed
(§13) (F) Percent Stability = T300minutesT60minutes∗100

[4] = tested on: Sprague Dawley rodent plasma; experiment: as above; format: in vitro ADME; details: rat plasma, 10000 nM
Experimental: as §9, §10, §1, §11, §12, §13

hepatocytes = experiment: Hepatic metabolite formation assay with non-targeted analysis; format: in vitro ADME, human and rat
Experimental: Extracts of plasma (50 µL), liver (10 mg), and hepatocyte metabolism assay media (10 µL) were analyzed by high-resolution, accurate mass non-targeted analysis (NTA) for the detection and identification of potential biotransformation products of HFPO-TeA. A mixture of ^13C-labeled PFAS compounds (MPAC-C-ES, Wellington Laboratories, Guelph, ON, Canada) were used as tracers. Samples were extracted, as detailed above (in vivo) and below (in vitro), and then analyzed in triplicate in a randomized order on a Sciex X500R QTOF. Additional information on NTA instrumental analysis and data processing parameters is presented in Supplementary Text S8 and Tables S8 and S10 [52]. […] A screening list of potential biotransformation products was generated using the U.S. EPA web application CTS: Chemical Transformation Simulator 1.0 and Biotransformer 3.0 [53, 54]. In some instances, molecular structure predictions were performed using MetFrag.
For the hepatic metabolite formation assays, the procedure described above was followed with the following modifications: assay concentrations of 50 and 100 µM were used, and samples were collected at times T0, T30, T60, and T120 min. Aliquots (10 µL) were combined with an equal volume of H2O. Non-targeted screening of potential biotransformation or degradation products of these samples was performed on the Sciex instrumentation described above.

[5] = plasma, Rat plasma, 10 µM, ultracentrifugation, read-out: Experimental fup (average fraction unbound in plasma)
[6] = rat plasma, 10000 nM, Rep A, read-out: Fraction Unbound in plasma (fup), Rep A
[7] = rat plasma, 10000 nM, Rep C, read-out: Fraction Unbound in plasma (fup), Rep C
[8] = rat plasma, 10000 nM, Rep B, read-out: Fraction Unbound in plasma (fup), Rep B

O=C(O)C(F)(OC(F)(F)C(F)(F)C(F)(F)F)C(F)(F)F (centres unmarked) [HFPO-DA, perfluoro-2-methyl-3-oxahexanoic acid]
Clhep (hepatic clearance) [1]: 0 L/h
Css [1]: 24670 ng/mL
Css (steady-state concentration, plasma) [1]: 74.75 µM and 74.7454 µM
fraction unbound [1]: 0.0178
Clint [1]: 0 µL/min
Clhep (hepatic clearance) [2]: 0 L/h
Css [2]: 2400 ng/mL
Css (steady-state concentration, plasma) [2]: 7.27 µM and 7.2674 µM
fraction unbound at 300 min [2]: 0.0547
Clint [2]: 0 µL/min
fraction unbound at 4 h, 10 µM [3, 5]: 0.0307
fraction unbound at 4 h, 10 µM [3, 6]: 0.0304
fraction unbound at 4 h, 10 µM [3, 7]: 0.031
Average Stability (T5hr/ T1hr) [4]: 1.0909
Aqueous Fraction, Rep A [4]: 265.60 nM
Stability (T5hr/ T1hr), Rep A [4]: 1.0510
Time 1 hr concentration, Rep A [4]: 8.312 µM
Time 5 hr concentration, Rep A [4]: 8.736 µM
Aqueous Fraction, Rep B [4]: 230.40 nM
Time 1 hr concentration, Rep B [4]: 7.672 µM
Aqueous Fraction, Rep C [4]: 240 nM
Stability (T5hr/ T1hr), Rep C [4]: 1.1308
Time 1 hr concentration, Rep C [4]: 6.848 µM
Time 5 hr concentration, Rep C [4]: 7.744 µM

O=C(O)C(F)(OC(F)(F)C(F)(OC(F)(F)C(F)(F)C(F)(F)F)C(F)(F)F)C(F)(F)F (centres unmarked) [HFPO-TA, perfluoro-(2,5-dimethyl-3,6-dioxanonanoic) acid]
Clhep (hepatic clearance) [1]: 0 L/h
Css [1]: 186410 ng/mL
Css (steady-state concentration, plasma) [1]: 375.76 µM and 375.7648 µM
fraction unbound [1]: 0.0024
Clint [1]: 0 µL/min
Clhep (hepatic clearance) [2]: 0 L/h
Css [2]: 40600 ng/mL
Css (steady-state concentration, plasma) [2]: 81.84 µM and 81.8399 µM
fraction unbound at 300 min [2]: 0.0032
Clint [2]: 0 µL/min
fraction unbound at 4 h, 10 µM [3, 5]: 0.0018
fraction unbound at 4 h, 10 µM [3, 6]: 0.00165
fraction unbound at 4 h, 10 µM [3, 8]: 0.00156
fraction unbound at 4 h, 10 µM [3, 7]: 0.00223
Average Stability (T5hr/ T1hr) [4]: 1.0261
Aqueous Fraction, Rep A [4]: 16.00 nM
Stability (T5hr/ T1hr), Rep A [4]: 0.9209
Time 1 hr concentration, Rep A [4]: 10.52 µM
Time 5 hr concentration, Rep A [4]: 9.688 µM
Aqueous Fraction, Rep B [4]: 16.00 nM
Stability (T5hr/ T1hr), Rep B [4]: 1.1708
Time 1 hr concentration, Rep B [4]: 8.76 µM
Time 5 hr concentration, Rep B [4]: 10.256 µM
Aqueous Fraction, Rep C [4]: 22.40 nM
Stability (T5hr/ T1hr), Rep C [4]: 0.9866
Time 1 hr concentration, Rep C [4]: 10.184 µM
Time 5 hr concentration, Rep C [4]: 10.048 µM
abundance relative to HFPO-TeA (hepatocytes; T0 active hepatocyte preparation): < 1%

O=C(O)C(F)(OC(F)(F)C(F)(OC(F)(F)C(F)(OC(F)(F)C(F)(F)C(F)(F)F)C(F)(F)F)C(F)(F)F)C(F)(F)F (centres unmarked) [HFPO-TeA, perfluoro-(2,5,8-trimethyl-3,6,9-trioxadodecanoic) acid]
Clhep (hepatic clearance) [1]: 0 L/h
Css [1]: 19420 ng/mL
Css (steady-state concentration, plasma) [1]: 29.34 µM and 29.3351 µM
fraction unbound [1]: 0.0226
Clint [1]: 0 µL/min
Clhep (hepatic clearance) [2]: 0 L/h
Css [2]: 12550 ng/mL
Css (steady-state concentration, plasma) [2]: 19 µM and 18.96 µM and 18.9581 µM
fraction unbound at 300 min [2]: 0.0105
Clint [2]: 0 µL/min
fraction unbound at 4 h, 10 µM [3, 5]: 0.0059
fraction unbound at 4 h, 10 µM [3, 6]: 0.00493
fraction unbound at 4 h, 10 µM [3, 8]: 0.00519
fraction unbound at 4 h, 10 µM [3, 7]: 0.00748
Average Stability (T5hr/ T1hr) [4]: 1.1996
Aqueous Fraction, Rep A [4]: 38.40 nM
Stability (T5hr/ T1hr), Rep A [4]: 0.9294
Time 1 hr concentration, Rep A [4]: 8.384 µM
Time 5 hr concentration, Rep A [4]: 7.792 µM
Aqueous Fraction, Rep B [4]: 35.20 nM
Stability (T5hr/ T1hr), Rep B [4]: 1.0392
Time 1 hr concentration, Rep B [4]: 6.528 µM
Time 5 hr concentration, Rep B [4]: 6.784 µM
Aqueous Fraction, Rep C [4]: 48.00 nM
Stability (T5hr/ T1hr), Rep C [4]: 1.6301
Time 1 hr concentration, Rep C [4]: 3.936 µM
Time 5 hr concentration, Rep C [4]: 6.416 µM
presence of predicted biotransformation products (non-targeted analysis) (hepatocytes; in vitro hepatocyte assays): None of the biotransformation products predicted using CTS were observed
